A short description of this data set: Dissolving the cooling agent in a solvent with stepwise heating, then cooling to room temperature and observing crystallisation. Type of data set: physicochemical.

In the case of `COc1ccc(NC(=O)[C@@H]2C[C@H](C)CC[C@H]2C(C)C)cc1` [(1R,2S,5R)-N-(4-methoxyphenyl)-5-methyl-2-(1-methylethyl)-cyclohexane-carboxamide], the “amount of cooling agent that can be dissolved” value (in 2-hydroxypropyl (2-isopropyl-5-methyl-cyclohexyl) carbonate, (2-isopropyl-5-methyl-cyclohexyl) 2-hydroxypropanoate or a mixture of both, based on the total weight of the composition) is listed as “up to 12 % by weight”. The “solubility in medium-chain triglycerides” value (medium-chain triglycerides as solvent, even at 60° C.) was “insoluble”.

Values taken from patent publication US12440435B2, “Solubilization of poorly soluble cooling substances” (SYMRISE AG, priority 2018, dated 2025).
